# Experiments:
# human TRPV1 = human TRPV1 (Homo sapiens, UniProt Q8NER1); test: FLIPR antagonism of capsaicin; format: cell-based; conditions: for antagonism of capsaicin response, in words: capsaicin 100 nM; for fold more potent than the corresponding racemate: Ki(CAP), (S)-isomer versus racemate; for fold better antagonism than linear derivative 15c: Ki(CAP) versus 15c
# [1] = test system: capsaicin-induced hypothermia; test: Inhibition of capsaicin-induced hypothermia; format: in vivo, mouse; conditions: 15 min before 3 mg/kg ip capsaicin, assayed 30 min after capsaicin
# [2] = test system: CCI-induced cold allodynia; test: Bennett model; format: in vivo, rat
# human TRPV1, sequence (Q8NER1 whole entry): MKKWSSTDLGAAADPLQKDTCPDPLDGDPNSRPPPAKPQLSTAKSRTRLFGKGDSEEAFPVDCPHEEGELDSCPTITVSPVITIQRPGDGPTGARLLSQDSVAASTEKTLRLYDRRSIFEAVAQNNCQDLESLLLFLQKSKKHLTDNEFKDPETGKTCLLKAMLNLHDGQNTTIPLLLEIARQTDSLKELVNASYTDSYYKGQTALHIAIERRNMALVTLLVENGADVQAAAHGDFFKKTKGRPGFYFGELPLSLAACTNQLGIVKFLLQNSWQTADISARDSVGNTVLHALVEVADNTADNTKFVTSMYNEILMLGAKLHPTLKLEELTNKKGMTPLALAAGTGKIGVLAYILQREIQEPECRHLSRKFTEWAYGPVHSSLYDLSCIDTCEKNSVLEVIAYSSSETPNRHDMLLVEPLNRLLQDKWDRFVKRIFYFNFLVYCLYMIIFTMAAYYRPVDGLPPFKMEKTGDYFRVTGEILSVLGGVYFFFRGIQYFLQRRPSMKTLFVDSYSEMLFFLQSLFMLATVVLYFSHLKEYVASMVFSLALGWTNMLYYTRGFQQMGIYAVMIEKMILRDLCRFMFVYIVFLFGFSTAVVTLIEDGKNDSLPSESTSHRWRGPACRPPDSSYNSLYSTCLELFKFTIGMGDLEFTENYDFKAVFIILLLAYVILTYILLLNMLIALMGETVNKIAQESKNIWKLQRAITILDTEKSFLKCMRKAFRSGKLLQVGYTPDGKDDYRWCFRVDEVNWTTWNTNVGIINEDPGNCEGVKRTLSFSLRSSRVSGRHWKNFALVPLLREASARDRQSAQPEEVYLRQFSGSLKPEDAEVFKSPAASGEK
compound,measurement,setting,value
CC(C(=O)NCc1ccc(C(F)(F)F)nc1Br)c1ccc(NS(C)(=O)=O)c(F)c1 (stereo not drawn) [compound 9],"antagonism of capsaicin response, in words",human TRPV1,weak antagonists
CC(C(=O)NCc1ccc(C(F)(F)F)nc1Cl)c1ccc(NS(C)(=O)=O)c(F)c1 (stereo not drawn) [compound 8],"antagonism of capsaicin response, in words",human TRPV1,weak antagonists
C[C@H](C(=O)NCc1ccc(C(F)(F)F)nc1C1=CCC(C(C)(C)C)CC1)c1ccc(NS(C)(=O)=O)c(F)c1 (stereo partly drawn) [(S)-15t],fold more potent than the corresponding racemate,human TRPV1,ca. 2 fold
CC(C(=O)NCc1ccc(C(F)(F)F)nc1CCC(C)(C)C)c1ccc(NS(C)(=O)=O)c(F)c1 (stereo not drawn) [15e],fold better antagonism than linear derivative 15c,human TRPV1,ca. 2 fold
CC(C(=O)NCc1ccc(C(F)(F)F)nc1C1CC2CCC1C2)c1ccc(NS(C)(=O)=O)c(F)c1 (stereo not drawn) [15n],fold less potent than monocycle 15f,human TRPV1; Ki(CAP) versus 15f,2.5 fold
C[C@H](C(=O)NCc1ccc(C(F)(F)F)nc1C1CCC(C)(C)CC1)c1ccc(NS(C)(=O)=O)c(F)c1 [(S)-15l],fold more potent than the corresponding racemate,human TRPV1,ca. 2 fold
C[C@H](C(=O)NCc1ccc(C(F)(F)F)nc1C1CCCCC1)c1ccc(NS(C)(=O)=O)c(F)c1 [(S)-15f],fold more potent than the corresponding racemate,human TRPV1,2 fold
CC(C)=Cc1nc(C(F)(F)F)ccc1CNC(=O)C(C)c1ccc(NS(C)(=O)=O)c(F)c1 (stereo not drawn) [16a],"antagonism of capsaicin response, in words",human TRPV1,moderate antagonistic activity
CC(C(=O)NCc1ccc(C(F)(F)F)nc1C1CCCCC1)c1ccc(NS(C)(=O)=O)c(F)c1 (stereo not drawn) [15f],"CAP-induced hypothermia, inhibition",[1]; 0.1 mg/kg po,24 % inh.
same,"CAP-induced hypothermia, inhibition",[1]; 0.3 mg/kg po,78 % inh.
same,fold better antagonism than linear derivative 15c,human TRPV1,2.5 fold
same,"Bennett model, maximal possible effect",[2]; 10 mg/kg po,60 MPE
same,"anti-allodynic activity, max effect",[2]; at 10 mg/kg po,60%
CCC/C=C\c1nc(C(F)(F)F)ccc1CNC(=O)C(C)c1ccc(NS(C)(=O)=O)c(F)c1 (stereo not drawn) [16c],fold less potent than saturated derivative 15b,human TRPV1; Ki(CAP) versus 15b,2 fold
CCC1CCC(c2nc(C(F)(F)F)ccc2CNC(=O)[C@@H](C)c2ccc(NS(C)(=O)=O)c(F)c2)CC1 (stereo partly drawn) [(S)-15h],fold more potent than the corresponding racemate,human TRPV1,ca. 2 fold
"CC(C)C[C@H](CN)CC(=O)O [pregabalin, reference compound]","anti-allodynic activity, max effect",[2]; at 100 mg/kg,69%
C[C@H](C(=O)NCc1ccc(C(F)(F)F)nc1C1CC2CCC1C2)c1ccc(NS(C)(=O)=O)c(F)c1 (stereo partly drawn) [(S)-15n],fold more potent than the corresponding racemate,human TRPV1,ca. 2 fold
CC1CC=C(c2nc(C(F)(F)F)ccc2CNC(=O)[C@@H](C)c2ccc(NS(C)(=O)=O)c(F)c2)CC1 (stereo partly drawn) [(S)-15p],fold more potent than the corresponding racemate,human TRPV1,ca. 2 fold
C[C@H](C(=O)NCc1ccc(C(F)(F)F)nc1C1=CCC(C)(C)CC1)c1ccc(NS(C)(=O)=O)c(F)c1 [(S)-15u],fold more potent than the corresponding racemate,human TRPV1,ca. 2 fold
CCC1CCC(c2nc(C(F)(F)F)ccc2CNC(=O)C(C)c2ccc(NS(C)(=O)=O)c(F)c2)CC1 (stereo not drawn) [15h],fold increase in potency compared to 15f,human TRPV1; Ki(CAP) versus 15f,2 fold
CC(C)CCCc1nc(C(F)(F)F)ccc1CNC(=O)C(C)c1ccc(NS(C)(=O)=O)c(F)c1 (stereo not drawn) [15d],fold better antagonism than linear derivative 15c,human TRPV1,ca. 2 fold

# Reference: PMC6956567 (Bioorganic & medicinal chemistry letters, 2014)
